In patent US20050153870A1, “Medicinal composition for diagnosis, prevention, or therapy of multiple risk factor syndrome” (priority 2002, published 2005):

Test system: non-insulin dependent type II diabetes patients
Assay: Clinical test II
Format: in vivo, human
Conditions: for Body weight: week 0: 61.4 ± 10.21, in kg; for Serum neutral fat: week 0: 199.6 ± 88.29; for number of patients, Feeling of weariness Absent: before medication 0 of 25; for number of patients, Large amount of urine excretion Absent: before medication 0 of 30; for number of patients, Feeling of fatigue Absent: before medication 1 of 15; for number of patients, Throat dry Absent: before medication 1 of 30; for number of patients, Pain in the calf of leg Absent: before medication 4 of 16; for number of patients, Pain in the calf of leg Present: before medication 12 of 16; for number of patients, Feeling of fatigue Present: before medication 14 of 15; for number of patients, Feeling of weariness Present: before medication 25 of 25; for number of patients, Throat dry Present: before medication 29 of 30; for number of patients, Large amount of urine excretion Present: before medication 30 of 30
Procedure: On the other hand, Clinical test II was performed in a group of 79 participants from non-insulin dependent diabetic patients.
79 non-insulin dependent type II diabetes patients whose blood sugar is well-controlled under dietary therapy (all were mongoloid Japanese) participated in Clinical test II. They were forbidden to use sulfonyl urea and biguanide agent which is a therapeutic agent for type II diabetes, and a fibrate series medicament, nicotinic acid, and probucol which is a serum fat decreasing agent; however use of an antihypertensive agent is not particularly prohibited. They participated on a voluntary basis after they signed informed consent for clinical test participation, which was proposed by a medical institution based on the Helsinki declaration. The participants consisted of 26 males and 53 females. An average age at the sign-up time was 58±9.9 years old (average value±standard deviation), ranging from 37 to 81 years old. The body weight of patients was divided by standard body weight obtained from the standard body-weight table issued by Meiji life Insurance Company. This index was 1.24±0.154 (average value±standard deviation) at the sign-up time, meaning that there are many obese persons. After 12 weeks, the body weight index decreased to 1.18±0.137(average value±standard deviation).
The number of patients having normal blood pressure was 58 (of them, 31 patients were taking an antihypertensive agent).

[1] = 30 cases with diabetic complications

SMILES: COc1c(Cl)c(C)c(C=O)c(O)c1C/C=C(C)/C=C/[C@@]1(C)[C@H](C)CCC(=O)[C@@H]1C [4-O-methylascochlorin]
- Fasting blood sugar, change vs week 0 (6 mg/kg, week 4): −9.1% (n = 69)
- Serum neutral fat, change vs week 0 (6 mg/kg, week 4): −15.2% (n = 62)
- Total serum cholesterol, change vs week 0 (6 mg/kg, week 4): −14.3% (n = 60)
- Body weight (6 mg/kg, week 4): 61.4 ± 9.63
- Fasting blood sugar (6 mg/kg, week 4, week 0: 162 ± 50.68): 146.1 ± 41.06
- Serum neutral fat (6 mg/kg, week 4): 173.5 ± 71.25
- Total serum cholesterol (6 mg/kg, week 4, week 0: 265.3 ± 69.75): 238.7 ± 51.33
- Fasting blood sugar, change vs week 0 (6 mg/kg, week 8): −8.9% (n = 74)
- Serum neutral fat, change vs week 0 (6 mg/kg, week 8): −22.7% (n = 59)
- Total serum cholesterol, change vs week 0 (6 mg/kg, week 8): −18.6% (n = 61)
- Body weight (6 mg/kg, week 8): 60.7 ± 8.88
- Fasting blood sugar (6 mg/kg, week 8, week 0: 162 ± 50.68): 147.9 ± 46.94
- Serum neutral fat (6 mg/kg, week 8): 162.3 ± 65.89
- Total serum cholesterol (6 mg/kg, week 8, week 0: 265.3 ± 69.75): 228.0 ± 43.65
- Fasting blood sugar, change vs week 0 (6 mg/kg, week 12): −10.8% (n = 71)
- Serum neutral fat, change vs week 0 (6 mg/kg, week 12): −21.8% (n = 69)
- Total serum cholesterol, change vs week 0 (6 mg/kg, week 12): −19.7% (n = 69)
- Body weight (6 mg/kg, week 12): 60.3 ± 9.07
- Fasting blood sugar (6 mg/kg, week 12, week 0: 162 ± 50.68): 142.2 ± 44.03
- Serum neutral fat (6 mg/kg, week 12): 158.8 ± 73.28
- Total serum cholesterol (6 mg/kg, week 12, week 0: 265.3 ± 69.75): 220.04 ± 46.17
- number of patients, Feeling of weariness Absent (4th week): 10
- number of patients, Large amount of urine excretion Absent (4th week): 16
- number of patients, Feeling of fatigue Absent (4th week): 5
- number of patients, Throat dry Absent (4th week): 16
- number of patients, Pain in the calf of leg Absent (4th week): 9
- number of patients, Pain in the calf of leg Present (4th week): 7
- number of patients, Feeling of fatigue Present (4th week): 10
- number of patients, Feeling of weariness Present (4th week): 15
- number of patients, Throat dry Present (4th week): 14
- number of patients, Large amount of urine excretion Present (4th week): 14
- symptoms associated with diabetic nephropathy such as throat dry and excessive urination (5 excluded cases of type II diabetic patients having 10-20 year's disease history): disappeared from all patients
- number of patients, Feeling of weariness Absent (8th week): 19
- number of patients, Large amount of urine excretion Absent (8th week): 22
- number of patients, Feeling of fatigue Absent (8th week): 13
- number of patients, Throat dry Absent (8th week): 23
- number of patients, Pain in the calf of leg Absent (8th week): 10
- number of patients, Pain in the calf of leg Present (8th week): 6
- number of patients, Feeling of fatigue Present (8th week): 2
- number of patients, Feeling of weariness Present (8th week): 6
- number of patients, Throat dry Present (8th week): 7
- number of patients, Large amount of urine excretion Present (8th week): 8
- decrease of body weight compared to before medication (12-week medication): 0.9 kg
- number of patients, Feeling of weariness Absent (12th week): 24
- number of patients, Large amount of urine excretion Absent (12th week): 29
- number of patients, Feeling of fatigue Absent (12th week): 15
- number of patients, Throat dry Absent (12th week): 28
- number of patients, Pain in the calf of leg Absent (12th week): 14
- number of patients, Pain in the calf of leg Present (12th week): 2
- number of patients, Feeling of fatigue Present (12th week): 0
- number of patients, Feeling of weariness Present (12th week): 1
- number of patients, Throat dry Present (12th week): 2
- number of patients, Large amount of urine excretion Present (12th week): 1
- feeling of fatigue, feeling of weariness, pain in the calf of leg (diabetic neuropathy) [1]: improved these symptoms with the passage of time
- throat dry and excessive urination (symptoms of diabetic nephropathy) [1]: significantly improved
- abnormality in the serum biological test, hematocyte test, and urine test (79 patients, 12-week medication): did not bring any abnormality
- side effect (79 patients, 12-week medication, 6 mg/kg, transient, disappeared within a week): Two cases of light eruption
- Fasting blood sugar, change vs before medication (High blood sugar group FBS > 130 mg/dl, 4th week): −11.3% (n = 45)
- Fasting blood sugar (High blood sugar group FBS > 130 mg/dl, 4th week, before medication 187.6 ± 40.39): 167.3 ± 34.50 mg/dL
- Fasting blood sugar, change vs before medication (High blood sugar group FBS > 130 mg/dl, 8th week): −11.8% (n = 49)
- Fasting blood sugar (High blood sugar group FBS > 130 mg/dl, 8th week, before medication 187.6 ± 40.39): 167.8 ± 44.82 mg/dL
- Fasting blood sugar, change vs before medication (High blood sugar group FBS > 130 mg/dl, 12th week): −13.8% (n = 46)
- Fasting blood sugar (High blood sugar group FBS > 130 mg/dl, 12th week, before medication 187.6 ± 40.39): 161.7 ± 41.79 mg/dL
- Total serum cholesterol, change vs before medication (High cholesterol group 300-200 mg/dl, 4th week): −11.8% (n = 26)
- Total serum cholesterol (High cholesterol group 300-200 mg/dl, 4th week, before medication 267.6 ± 23.66): 240.8 ± 38.92 mg/dL
- Total serum cholesterol, change vs before medication (High cholesterol group 300-200 mg/dl, 8th week): −13.9% (n = 27)
- Total serum cholesterol (High cholesterol group 300-200 mg/dl, 8th week, before medication 267.6 ± 23.66): 232.4 ± 36.01 mg/dL
- Total serum cholesterol, change vs before medication (High cholesterol group 300-200 mg/dl, 12th week): −17.0% (n = 30)
- Total serum cholesterol (High cholesterol group 300-200 mg/dl, 12th week, before medication 267.6 ± 23.66): 227.2 ± 45.36 mg/dL
- Fasting blood sugar, change vs before medication (Normal blood sugar group FBS < 130 mg/dl, 4th week): ns (n = 24)
- Fasting blood sugar (Normal blood sugar group FBS < 130 mg/dl, 4th week, before medication 108.8 ± 15.10): 106.4 ± 13.48 mg/dL
- Fasting blood sugar, change vs before medication (Normal blood sugar group FBS < 130 mg/dl, 8th week): ns (n = 25)
